In the experiment the target is T1, CXCR3 (Homo sapiens, UniProt P49682).
T1 construct: expressed in transfected cells; membrane preparation
T1 sequence (P49682 1-368): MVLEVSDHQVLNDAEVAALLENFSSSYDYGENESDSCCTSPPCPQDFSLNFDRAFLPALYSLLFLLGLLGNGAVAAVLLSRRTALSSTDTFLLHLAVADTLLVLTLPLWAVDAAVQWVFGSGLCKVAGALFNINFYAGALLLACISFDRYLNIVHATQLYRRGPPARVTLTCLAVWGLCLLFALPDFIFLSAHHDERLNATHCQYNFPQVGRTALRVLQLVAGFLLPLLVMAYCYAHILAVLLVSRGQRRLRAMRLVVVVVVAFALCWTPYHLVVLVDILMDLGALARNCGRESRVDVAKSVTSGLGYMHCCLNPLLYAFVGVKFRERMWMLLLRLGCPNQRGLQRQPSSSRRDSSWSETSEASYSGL
Description: CXCR3/IP-10 radioligand binding (125I-IP-10 competition on CXCR3.L1/2 cell membranes). As to conditions: test compound 10 μmol/L; 125I-labeled IP-10 binding to CXCR3.L1/2 transfectant cell membranes; results Table 6. The source says:
The activity of the compounds of the present invention can be assessed using a suitable assay, such as a receptor binding assay, a chemotaxis assay, an extracellular acidification assay or a calcium flux assay (see, for example, Hesselgesser et al., J. Biol. Chem., 273(25): 15687-15692 (1998) and WO 98/02151). For example, as described herein, small organic molecule antagonists of CXCR3/IP-10 binding have been identified utilizing cells engineered to express recombinant human CXCR3 (CXCR3.L1/2) and which bind ^125I-IP-10 and chemotax in response to IP-10, Mig, or I-TAC. Specifically, a high through-put receptor binding assay, which monitors ^125I-IP-10 biding to CXCR3.L1/2 cell membranes, was used to identify small molecule antagonists. Binding assays can be performed using other ligands of CXCR3, such as, Mig, and/or I-TAC.
CXCR3/IP-10 Radioligand Binding:
CXCR3.L1/2 Membrane Preparation:
CXCR3.L1/2 cells were pelleted by centrifugation and stored at −80° C. The cells were lysed by thawing and resuspending at about 1.5×10^7 cells/mL in a hypotonic buffer (5 mmol/L HEPES (pH 7.2), 2 mmol/L EDTA, 10 μg/mL each leupeptin, aprotinin, and chymostatin, and 100 μg/mL PMSF (all from Sigma, St. Louis)). Nuclei and cellular debris are removed by centrifugation ([…], at 4° C.) for 10 min. The supernatant was transferred to chilled centrifuge tubes (Nalge, Rochester, N.Y.) and the membrane fraction was recovered by centrifugation (25,000 g at 4° C.) for 45 min. The membrane pellet was resuspended in freezing buffer (10 mmol/L HEPES (pH 7.2), 300 mmol/L Sucrose, 5 μg/mL each of leupeptin, aprotinin, and chymostatin, and 10 μg/mL PMSF). The total protein concentration was determined using a coomassie blue staining protein concentration assay kit (BioRad). The membrane preparations are aliquoted and stored at −80° C. until time of use.
CXCR3/IP-10 binding was performed in 96-well polypropylene plates (Costar) in a final volume of 0.1 mL of HBB buffer (50 mmol/L Hepes pH 7.4, 1 mmol/L CaCl2, 5 mmol/L MgCl2, 0.02% sodium azide, 0.5% BSA (bovine serum albumin)), containing 1 to 5 μg CXCR3.L1/2 transfectant cell membrane protein and 0.05 to 0.2 nmol/L of ^125I-labeled IP-10 (NEN, Boston, Mass.). Competition binding experiments were performed by including variable concentrations of unlabeled IP-10 or test compound. Nonspecific binding was determined following the addition of a 250 nmol/L unlabelled IP-10. Samples were incubated for 60 min at room temperature, and bound and free tracer (^125I-labeled IP-10) were separated by filtration through 96-well GF/B filterplates presoaked in 0.3% polyethyleneimine. The filters were washed in HBB further supplemented with 0.5 mol/L NaCl, dried, and the amount of bound radioactivity determined by liquid scintillation counting. The competition is presented as the percent specific binding as calculated by 100×[(S−B)/(T−B)], where S is the radioactivity bound for each sample, B is background binding, and T is total bound in the absence of competitors. Duplicates were used throughout the experiments.

Regarding `Cc1cc(C)cc(CN2CCN(CCC(=O)N(c3cccc(CN4CCN(C)CC4)c3)C(C)C)C2=C(C#N)C#N)c1` [Compound 23, N-Isopropyl-N-[3-(4-methyl-1-piperazinylmethyl)phenyl]-3-[3-(3,5-dimethylbenzyl)-2-dicyanomethylideneimidazolidin-1-yl]propionamide], the “% inhibition at 10 μmol/L” value is listed as 92%.
For the compound `CCN(CC)Cc1cccc(N(C(=O)CCN2CCN(Cc3cc(C)cc(C)c3)C2=C(C#N)C#N)C(C)C)c1` [Compound 24, N-Isopropyl-N-[3-(diethylaminomethyl)phenyl]-3-[3-(3,5-dimethylbenzyl)-2-dicyanomethylideneimidazolidin-1-yl]propionamide], the inhibition at 10 µM is 90%.
On the same count and under the same terms, the same measure for `CCOC(=O)C1CCN(Cc2cccc(N(C(=O)CCN3CCN(Cc4cc(C)cc(C)c4)C3=C(C#N)C#N)C(C)C)c2)CC1` [Compound 25, N-Isopropyl-N-[3-(4-ethoxycarbonylpiperidinomethyl)phenyl]-3-[3-(3,5-dimethylbenzyl)-2-dicyanomethylideneimidazolidin-1-yl]propionamide]: 107%; for `Cc1cc(C)cc(CN2CCN(CCC(=O)N(c3cccc(CN(CCO)CCO)c3)C(C)C)C2=C(C#N)C#N)c1` [Compound 26, N-Isopropyl-N-[3-(bis(2-hydroxyethyl)aminomethyl)phenyl]-3-[3-(3,5-dimethylbenzyl)-2-dicyanomethylideneimidazolidin-1-yl]propionamide]: 93%; for `Cc1cc(C)cc(CN2CCN(CCC(=O)N(c3cccc(CN(C)CCO)c3)C(C)C)C2=C(C#N)C#N)c1` [Compound 27, N-Isopropyl-N-[3-[(N-(2-hydroxyethyl)-N-methylamino)methyl]phenyl]-3-[3-(3,5-dimethylbenzyl)-2-dicyanomethylideneimidazolidin-1-yl]propionamide]: 92%.
Turning to “N-Isopropyl-N-[3-(piperidinomethyl)phenyl]-3-[3-(1-naphthalenylmethyl)-2-dicyanomethylidene imidazolidin-1-yl]propionamide [Compound 16]”, the “% inhibition at 10 μmol/L” value is 95%.

In general, % inhibition refers to the relative decrease from the control value, in per cent. A high value points to strong suppression. The inhibition is the drop in the measured response relative to a control, in per cent.
